Laboratory results taken from PMC6350249 (The Journal of organic chemistry, 2016).

Assays:
[1] = target: T1, CH1 domain of p300 and the C-TAD domain of HIF-1α (Homo sapiens, UniProt Q09472); assay: HIF-1α/p300 assay, dose–response version of the screening assay; format: binding; conditions: for inhibition of the protein–protein interaction: at 500 μM (high test concentration)
[2] = test system: chloroquine-resistant (W2) strain of Plasmodium falciparum; assay: Antimalarial inhibitory activity, chloroquine-resistant; format: cell-based; conditions: P. falciparum W2 strain
[3] = test system: chloroquine-sensitive (D6) strain of Plasmodium falciparum; assay: Antimalarial inhibitory activity, chloroquine-sensitive; format: cell-based; conditions: P. falciparum D6 strain
[4] = target: T1, CH1 domain of p300 and the C-TAD domain of HIF-1α; conditions: earlier report; cited from earlier work

T1 sequence (Q09472 331-417 limits assumed): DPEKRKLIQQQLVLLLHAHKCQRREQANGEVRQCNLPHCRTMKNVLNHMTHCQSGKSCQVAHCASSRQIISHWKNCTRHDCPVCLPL

| Compound | inhibition of the protein–protein interaction [1] | antimalarial effect (in words) [2] | antimalarial effect (in words) [3] | inhibition of the protein–protein interaction between p300 and HIF-1α (in words) [4] | IC50 [2] | IC50 [3] | IC50 ([1]; HIF-1α/p300 assay) |
| --- | --- | --- | --- | --- | --- | --- | --- |
| COc1ccc(C2(c3[nH]c(N)nc3-c3ccc(O)cc3)N=C3N=CC=C4c5ccccc5N=C2N43)cc1 (stereo not drawn) [compound 1, eudistidine C] | approximately 48% | – | – | – | – | – | – |
| (+)-(R)-eudistidine C [1a] | 27% | significant antimalarial effects | significant antimalarial effects | – | – | – | – |
| COc1ccc(C2(O)N=C3N=CC=C4c5ccccc5N=C2N43)cc1 (stereo not drawn) [compound 2, eudistidine A] | – | significant antimalarial effects | significant antimalarial effects | inhibited | 1100 nM | 1400 nM | – |
| (−)-(S)-eudistidine C [1b] | – | significant antimalarial effects | significant antimalarial effects | – | – | – | 276000 nM |
